Experimental data reported in patent US9260404B1, “Preparation of ambrox from labdanes of Dysoxylum hongkongense, and the preparation of new diterpenoids from Dysoxylum hongkongense” (National Taiwan University, priority 2014, dated 2016).
≈ marks a conversion by molar mass, not a printed value.

Columns and labels:
[1] = test system: human colon adenocarcinoma WiDr; test: Cytotoxic assay (MTT), WiDr; assay type: cell-based
Description: (§1) Cytotoxic Assay. Human hepatocellular carcinoma Hep-G2, human colon adenocarcinoma WiDr and human laryngeal carcinoma Hep-2 were used as the targets for research, and an antitumor drug, mitomycin C, was the control. The effective dosage (ED50, μg/mL) of the compounds on the cancer cell cytotoxicity was determined by the well-known cytotoxicity assay (3-(4,5-dimethylthiazol-2-yl)-2,5-diphenyltetrazolium bromide (MTT) assay) in the art.

[2] = test system: human hepatocellular carcinoma Hep-G2; test: Cytotoxic assay (MTT), Hep-G2; assay type: cell-based
Description: as §1

[3] = test system: human laryngeal carcinoma Hep-2; test: Cytotoxic assay (MTT), Hep-2; assay type: cell-based; conditions: Hep-2, MTT assay
Description: as §1

[4] = test system: HSV-1 (KOS strain); test: Anti-HSV-1 plaque reduction assay in Vero cells; assay type: cell-based, Herpes Simplex Virus-1; conditions: for inhibition (in vitro inhibitory activity against the HSV-1 virus): at 10 μM, plaque formation in Vero cells; for inhibition at 10 µM: Human alphaherpesvirus 1, plaque formation in Vero cells, read-out: inhibition (in vitro inhibitory activity against the HSV-1 virus)
Description: Anti Herpes Simplex Virus-1 (HSV-1) Assay, Cell Culture and Virus. Vero cells were cultured in minimal essential medium (MEM; GIBCO®, Grand Island, N.Y.) supplemented with 10% fetal calf serum (FCS; Hyclone™, Logan, Utah), 100 U/mL penicillin and 100 μg/mL streptomycin and incubated at 37° C. in a 5% CO2 incubator. To prepare a stock of HSV-1 (KOS strain, VR-1493, ATCC), Vero cells were infected with HSV-1 at a multiplicity of infection points on three plaque forming units (PFU)/cell and harvested at 24 hours postinfection and centrifuged at 1500×g (Centrifuge 5810 R, Eppendorf) at 4° C. for 20 minutes. The supernatant was collected and stored at −70° C. for use.
Plaque Reduction Assay. The bioassay followed a procedure described previously (Kuo et al., Samarangenin B from Limonium sinense Suppresses Herpes Simplex Virus Type 1 Replication in Vero Cells by Regulation of Viral Macromolecular Synthesis. Antimicrob. Agents Chemother., 2002, 46(9): 2854-2864.). […] The viruses were adsorbed for 1 hour at 37° C. and 1% methylcellulose was added to each well. After 5 days, the virus plaques formed in Vero cells were counted by crystal violet staining. The activities of various compounds and acyclovir for inhibition of plaque formation were calculated.

[5] = test system: elastase release by human neutrophils; test: Elastase release by human neutrophils in response to FMLP/CB; assay type: cell-based; conditions: 10 μg/mL
Description: (§2) Anti-inflammatory Assays, Inhibitory Effect on Superpxide Anion Generation and Elastase Release by Human Neutrophils. Neutrophils were obtained by means of dextran sedimentation and Ficoll centrifugation. Superoxide generation and elastase release were carried out according to a procedure described previously (Hwang et al., Inhibition of Superoxide Anion and Elastase Release in Human Neutrophils by 3′-Isopropoxychalcone via a cAMP-dependent Pathway. Br. J. Pharmacol., 2006, 148(1): 78-87.; and Liaw et al., Frajunolides E-K, Briarane Diterpenes from Junceella fragilis. J. Nat. Prod., 2008, 71(9): 1551-1556.). Superoxide anion production was assayed by monitoring the superoxide dismutase-inhibitable reduction of ferricytochrome c. Elastase release experiments were performed using MeO-Suc-Ala-Ala-Pro-Val p-nitroanilide as the elastase substrate.

[6] = test system: superoxide anion generation by human neutrophils; test: Superoxide anion generation by human neutrophils in response to FMLP/CB; assay type: cell-based; conditions: 10 μg/mL
Description: as §2

C=C[C@@]1(C)O[C@]2(C)CC[C@H]3C(C)(C)C(=O)CC[C@]3(C)[C@H]2C[C@H]1O [Compound 8, Dysongensin B]
ED50 cytotoxic activity against WiDr cells [1]: 19.13 ± 0.56 µg/mL (≈ 59.7 µM) | ED50 cytotoxic activity against Hep-G2 cells [2]: 18.05 ± 0.58 µg/mL (≈ 56.3 µM) | ED50 cytotoxic activity against Hep-2 cells [3]: 16.07 ± 0.17 µg/mL (≈ 50.1 µM)

C=C[C@@](C)(O)[C@@H]1C[C@@H]2[C@@]3(C)CCC(=O)C(C)(C)[C@@H]3CC[C@@]2(C)O1 [Compound 9, Dysongensin C]
inhibition (in vitro inhibitory activity against the HSV-1 virus) [4]: 32.7±4.0%

C=C[C@@](C)(O)[C@H]1C[C@@H]2[C@@]3(C)CCC(=O)C(C)(C)[C@@H]3CC[C@@]2(C)O1 [Compound 10, Dysongensin D]
inhibition at 10 µM [4]: 25.2 ± 6%

C=C[C@](C)(O)[C@H]1C[C@@H]2[C@@]3(C)CCC(=O)C(C)(C)[C@@H]3CC[C@@]2(C)O1 [Compound 11, Dysongensin E]
anti-inflammatory effect on elastase release [5]: 31.29±6.67%

C=C[C@](C)(O)[C@H]1C[C@@H]2[C@@]3(C)CC[C@H](O)C(C)(C)[C@@H]3CC[C@@]2(C)O1 [Compound 12, Dysongensin F]
ED50 cytotoxic activity against Hep-2 cells [3]: 17.92 ± 0.25 µg/mL (≈ 55.6 µM)

C=C[C@@](O)(CO)[C@H]1C[C@@H]2[C@@]3(C)CCC4C[C@@]4(C)[C@@H]3CC[C@@]2(C)O1 (stereo partly drawn) [Compound 13, Dysongensin G]
inhibition (in vitro inhibitory activity against the HSV-1 virus) [4]: 29.3±9.0% | ED50 cytotoxic activity against Hep-G2 cells [2]: 37.78 ± 0.81 µg/mL (≈ 118 µM)

C=C[C@](O)(CO)[C@@H]1C[C@@H]2[C@@]3(C)CCC4C[C@@]4(C)[C@@H]3CC[C@@]2(C)O1 (stereo partly drawn) [Compound 14, Dysongensin H]
ED50 cytotoxic activity against WiDr cells [1]: 15.45 ± 0.73 µg/mL (≈ 48.2 µM) | anti-inflammatory effect on superoxide anion generation [6]: 25.33±4.04% | inhibition at 10 µM [4]: 29.7 ± 6% | ED50 cytotoxic activity against Hep-G2 cells [2]: 16.86 ± 0.85 µg/mL (≈ 52.6 µM)

Dysongensin A [Compound 1]
ED50 cytotoxic activity against WiDr cells [1]: 18.67 ± 0.56 µg/mL | ED50 cytotoxic activity against Hep-G2 cells [2]: 20.34 ± 0.58 µg/mL
